Measurements: the supplement of paper PMC10307832

Experiments:
Experiment in all cases: relative viability (nuclei count vs DMSO), 5 days (fraction); higher = more cells survive
[1] = compound: COc1cc2ncn(-c3cc(OCc4ccccc4C(F)(F)F)c(C(N)=O)s3)c2cc1OC
Procedure, shortened: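 Nuclei counted with MetaXpress define viability as the ratio of treated to vehicle wells, given as a median across plates. The lung cancer cell lines were in 1536-well plates, pinned with five √10-spaced library-drug doses and imaged at 4× after 5 days and Hoechst staining. Plates passed with control CV below 25% and at least one doubling.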

[2] = compound: COc1cc2ncn(-c3cc(OCc4ccccc4C(F)(F)F)c(C(N)=O)s3)c2cc1OC + CC(=O)Nc1cccc(-n2c(=O)n(C3CC3)c(=O)c3c(Nc4ccc(I)cc4F)n(C)c(=O)c(C)c32)c1 [Trametinib] (partner 0.02 µM)
Procedure, shortened: (§1)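 Relative viability divides the nuclei count in treated wells by that in vehicle wells. Lung cancer cell lines were seeded in 1536-well plates, dosed by pin tool the next day, and fixed and stained after 5 days in one step with final 0.05% Triton X-100, 1% formaldehyde and 1 ug/ml Hoechst. Dosing was a single drug or a fixed anchor-drug dose plus five library-drug doses (not always all listed) in √10 steps, and values are medians of duplicate plates imaged at 4×.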

[3] = compound: COc1cc2ncn(-c3cc(OCc4ccccc4C(F)(F)F)c(C(N)=O)s3)c2cc1OC + N=C(N)NC(=N)NCCc1ccccc1 [Phenformin] (partner 250 µM)
Procedure, shortened: as §1

[4] = compound: COc1cc2ncn(-c3cc(OCc4ccccc4C(F)(F)F)c(C(N)=O)s3)c2cc1OC + O=C(c1cc(Cc2n[nH]c(=O)c3ccccc23)ccc1F)N1CCN(C(=O)C2CC2)CC1 [Olaparib] (partner 8 µM)
Procedure, shortened: as §1

Cell Line | relative viability ([1]; 0.05 µM) | relative viability ([1]; 0.1581 µM) | relative viability ([1]; 0.5 µM) | relative viability ([1]; 1.581 µM) | relative viability ([1]; 5 µM) | relative viability ([2]; first compound 0.05 µM) | relative viability ([2]; first compound 0.1581 µM) | relative viability ([2]; first compound 0.5 µM) | relative viability ([2]; first compound 1.581 µM) | relative viability ([2]; first compound 5 µM) | relative viability ([3]; first compound 0.05 µM) | relative viability ([3]; first compound 0.1581 µM) | relative viability ([3]; first compound 0.5 µM) | relative viability ([3]; first compound 1.581 µM) | relative viability ([3]; first compound 5 µM) | relative viability ([4]; first compound 0.05 µM) | relative viability ([4]; first compound 0.1581 µM) | relative viability ([4]; first compound 0.5 µM) | relative viability ([4]; first compound 1.581 µM) | relative viability ([4]; first compound 5 µM)
NCI-H2126 | 1.02 | 1 | 0.754 | 0.329 | 0.236 | 0.535 | 0.582 | 0.478 | 0.27 | 0.205 | 0.481 | 0.579 | 0.367 | 0.265 | 0.261 | 0.813 | 0.86 | 0.449 | 0.238 | 0.241
HCC-44 | 0.985 | 1 | 0.871 | 0.204 | 0.211 | 0.977 | 0.935 | 0.874 | 0.387 | 0.225 | 0.193 | 0.164 | 0.106 | 0.0862 | 0.118 | 1.06 | 1.04 | 0.877 | 0.39 | 0.372
NCI-H460 | 0.986 | 0.946 | 0.603 | 0.0622 | 0.0847 | 0.247 | 0.101 | 0.102 | 0.0172 | 0.0148 | 0.476 | 0.49 | 0.0454 | 0.0127 | 0.0125 | 0.468 | 0.357 | 0.0734 | 0.0365 | 0.0215
SW 1573 | 1.06 | 0.963 | 0.547 | 0.173 | 0.325 | 0.545 | 0.56 | 0.41 | 0.11 | 0.0977 | 0.232 | 0.413 | 0.143 | 0.103 | 0.0927 | 0.442 | 0.428 | 0.188 | 0.103 | 0.119
NCI-H322M | 0.982 | 1.11 | 0.79 | 0.517 | 0.325 | 0.503 | 0.486 | 0.47 | 0.463 | 0.384 | 0.739 | 0.869 | 0.631 | 0.363 | 0.303 | 0.717 | 0.778 | 0.594 | 0.475 | 0.423
EKVX | 1.02 | 0.99 | 0.77 | 0.394 | 0.629 | 0.36 | 0.307 | 0.365 | 0.173 | 0.201 | 0.236 | 0.151 | 0.188 |  | 0.197 | 0.888 | 0.934 | 0.631 | 0.206 | 0.222
NCI-H1734 | 1.02 | 1.02 | 0.591 | 0.224 | 0.174 | 0.52 | 0.558 | 0.623 | 0.294 | 0.163 | 0.417 | 0.329 | 0.322 | 0.18 | 0.121 | 0.235 | 0.646 | 0.247 | 0.212 | 0.144
SW 900 | 0.91 | 0.827 | 0.638 | 0.275 | 0.176 | 0.639 | 0.778 | 0.649 | 0.433 | 0.124 | 0.538 | 0.503 | 0.53 | 0.33 | 0.14 | 0.778 | 0.892 | 0.601 | 0.201 | 0.171
NCI-H520 | 0.946 | 0.975 | 0.649 | 0.212 | 0.198 | 0.644 | 0.561 | 0.236 | 0.171 | 0.166 | 0.598 | 0.642 | 0.269 | 0.266 | 0.211 | 0.198 | 0.247 | 0.193 | 0.182 | 0.142
EPLC-272H | 0.615 | 0.946 | 0.269 | 0.124 | 0.101 | 0.285 | 0.234 | 0.216 | 0.154 | 0.163 |  | 0.323 | 0.151 | 0.135 | 0.15 | 0.177 | 0.221 | 0.0762 | 0.0805 | 0.146
NCI-H596 | 0.946 | 1.04 | 0.756 | 0.406 | 0.284 | 0.469 | 0.695 | 0.802 | 0.439 | 0.297 | 0.81 | 0.811 | 0.466 | 0.397 | 0.275 | 0.542 | 0.692 | 0.765 | 0.413 | 0.306
NCI-H1792 | 1.11 | 0.894 | 0.403 | 0.16 | 0.103 | 0.305 | 0.43 | 0.275 | 0.0525 | 0.0332 | 0.324 | 0.279 | 0.256 | 0.0695 | 0.0567 | 0.152 | 0.273 | 0.457 | 0.0375 | 0.0338
NCI-H1993 | 1.1 | 0.855 | 0.469 | 0.605 | 0.534 | 0.473 | 0.499 | 0.387 | 0.345 | 0.427 | 0.474 | 0.527 | 0.5 | 0.495 | 0.428 | 0.952 | 1.14 | 0.742 | 0.535 | 0.462
NCI-H647 | 0.956 | 0.881 | 0.432 | 0.0899 | 0.0672 | 0.544 | 0.388 | 0.279 | 0.0866 | 0.079 | 0.537 | 0.509 | 0.101 | 0.0685 | 0.069 | 0.474 | 0.331 | 0.103 | 0.0536 | 0.0596
NCI-H1793 | 1.08 | 1.12 | 0.568 | 0.208 | 0.191 | 0.253 | 0.371 | 0.373 | 0.298 | 0.185 | 0.367 | 0.413 | 0.182 | 0.17 | 0.136 | 0.216 | 0.837 | 0.436 | 0.177 | 0.117
NCI-H1395 | 0.964 | 0.925 | 0.68 | 0.4 | 0.314 | 1.11 | 0.977 | 0.828 | 0.39 | 0.287 | 0.459 | 0.438 | 0.386 | 0.335 | 0.295 | 0.441 | 0.476 | 0.414 | 0.326 | 0.314
HCC-827 | 1.04 | 0.986 | 0.901 | 0.541 | 0.341 | 0.479 | 0.421 | 0.473 | 0.428 | 0.453 | 0.468 | 0.426 | 0.33 | 0.22 | 0.181 | 0.575 | 0.547 | 0.452 | 0.306 | 0.179
ChaGo-K-1 | 1.04 | 0.991 | 0.948 | 0.335 | 0.2 | 1.01 | 0.907 | 0.661 | 0.267 | 0.194 | 0.638 | 0.476 | 0.49 | 0.163 | 0.128 | 0.398 | 0.389 | 0.312 | 0.208 | 0.12
NCI-H2228 | 1.01 | 0.853 | 0.417 | 0.166 | 0.188 | 0.409 | 0.268 | 0.188 | 0.116 | 0.136 | 0.305 | 0.337 | 0.155 | 0.121 | 0.144 | 0.224 | 0.721 | 0.201 | 0.157 | 0.194
NCI-H2170 | 1.01 | 0.907 | 0.473 | 0.202 | 0.197 | 0.96 | 0.885 | 0.246 | 0.159 | 0.153 | 0.444 | 0.351 | 0.32 | 0.195 | 0.179 | 0.566 | 0.444 | 0.166 | 0.168 | 0.148
EMC-BAC-2 | 1.29 | 1.06 | 0.805 | 0.435 | 0.239 | 0.977 | 0.689 | 0.872 | 0.629 | 0.298 | 0.545 | 0.528 | 0.465 | 0.215 | 0.142 | 0.467 | 0.48 | 0.359 | 0.259 | 0.216
NCI-H522 | 1.02 | 0.91 | 0.935 | 0.561 | 0.308 | 0.654 | 0.748 | 0.657 | 0.673 | 0.335 | 0.741 | 0.581 | 0.612 | 0.484 | 0.404 | 0.51 | 0.714 | 0.621 | 0.517 | 0.337
NCI-H23 | 0.999 | 0.635 | 0.348 | 0.151 | 0.115 | 0.29 | 0.271 | 0.198 | 0.123 | 0.0957 | 0.798 | 0.821 | 0.433 | 0.129 | 0.125 | 0.187 | 0.239 | 0.166 | 0.128 | 0.0947
SK-LU-1 | 1.05 | 0.871 | 0.603 | 0.261 | 0.233 | 0.469 | 0.297 | 0.324 | 0.295 | 0.223 | 0.563 | 0.519 | 0.216 | 0.163 | 0.15 | 0.39 | 0.372 | 0.272 | 0.197 | 0.207
NCI-H358 | 0.908 | 1.03 | 0.475 | 0.166 | 0.164 | 0.146 | 0.114 | 0.104 | 0.116 | 0.096 | 0.3 | 0.321 | 0.162 | 0.0752 | 0.0692 | 0.552 | 0.516 | 0.195 | 0.0846 | 0.078
LC-2-ad | 0.941 | 0.918 | 0.351 | 0.195 | 0.227 | 1.02 | 0.821 | 0.662 | 0.211 | 0.188 | 0.527 | 0.578 | 0.313 | 0.274 | 0.316 | 0.431 | 0.593 | 0.466 | 0.173 | 0.176
HCC-15 | 0.944 | 0.964 | 0.437 | 0.157 | 0.122 | 0.227 | 0.378 | 0.259 | 0.112 | 0.0946 | 0.486 | 0.383 | 0.204 | 0.122 | 0.0883 | 0.566 | 0.446 | 0.232 | 0.131 | 0.14
